In one assay the target is T1, TLR7 (Homo sapiens, UniProt Q9NYK1).
T1 construct: Human peripheral blood mononuclear cells (PBMCs) consist of lymphocytes, monocytes and dendritic cells that express TLR7, TLR8 and TLR9; endogenous in cells; host or cells: cryopreserved human PBMCs from healthy donors
T1 sequence (Q9NYK1 27-1049): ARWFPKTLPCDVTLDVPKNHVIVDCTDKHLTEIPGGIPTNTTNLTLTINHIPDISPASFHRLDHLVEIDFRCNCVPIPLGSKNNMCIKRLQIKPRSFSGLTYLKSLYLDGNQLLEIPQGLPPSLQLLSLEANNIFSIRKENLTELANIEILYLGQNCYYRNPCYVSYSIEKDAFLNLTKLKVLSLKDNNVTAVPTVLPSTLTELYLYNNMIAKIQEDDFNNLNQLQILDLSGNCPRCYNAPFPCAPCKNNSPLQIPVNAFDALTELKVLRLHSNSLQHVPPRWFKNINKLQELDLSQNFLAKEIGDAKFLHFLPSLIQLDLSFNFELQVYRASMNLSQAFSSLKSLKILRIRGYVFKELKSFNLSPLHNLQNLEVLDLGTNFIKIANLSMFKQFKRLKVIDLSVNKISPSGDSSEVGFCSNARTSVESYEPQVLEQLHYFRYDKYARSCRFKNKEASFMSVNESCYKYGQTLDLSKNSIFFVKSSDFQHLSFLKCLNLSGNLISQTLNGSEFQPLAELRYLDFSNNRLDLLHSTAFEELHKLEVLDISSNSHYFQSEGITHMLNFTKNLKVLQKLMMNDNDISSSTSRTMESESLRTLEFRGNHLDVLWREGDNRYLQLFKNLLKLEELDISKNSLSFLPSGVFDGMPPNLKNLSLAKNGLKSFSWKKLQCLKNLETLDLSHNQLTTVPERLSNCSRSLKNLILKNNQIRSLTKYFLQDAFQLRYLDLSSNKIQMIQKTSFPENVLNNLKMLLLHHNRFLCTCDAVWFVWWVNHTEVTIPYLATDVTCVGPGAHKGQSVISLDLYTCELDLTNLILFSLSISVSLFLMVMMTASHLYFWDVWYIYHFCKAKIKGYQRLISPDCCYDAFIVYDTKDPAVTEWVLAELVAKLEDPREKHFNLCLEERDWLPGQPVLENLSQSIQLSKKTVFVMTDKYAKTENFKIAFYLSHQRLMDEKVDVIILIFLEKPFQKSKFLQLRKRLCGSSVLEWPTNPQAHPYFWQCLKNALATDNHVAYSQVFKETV
Description: TLR7 human peripheral blood mononuclear cell (PBMC) cell-based assay. The following applies: human PBMCs; 1 h with test antagonist, then TLR7 agonist GS-986 400 nM for 6 h; cytokines (IL-6 and IFNα) in supernatant; read-out: TLR-7 EC50. The source says: TLR7/9 Human Peripheral Blood Mononuclear Cell (PBMC) Cell-Based Assay
Human peripheral blood mononuclear cells (PBMCs) consist of lymphocytes, monocytes and dendritic cells that express TLR7, TLR8 and TLR9. These cells respond to TLR7, TLR8 and TLR9 ligand stimulation and produce cytokines and chemokines in vitro and in vivo. Human PBMCs are therefore suitable to be used in a cell-based assay to assess the in vitro potency of a TLR 7, 8, and/or 9 antagonist.
Cryopreserved human PBMCs from healthy donors were thawed and resuspended in RPMI-1640 media with L-glutamine (Corning) supplemented with 10% Fetal Bovine Serum (Hyclone) and 1× Penicillin-Streptomycin (Corning). After counting, the cell density was adjusted to 2 million cells/ml and incubated for 1 hour at 37° C., 5% CO2 for recovery. Following the recovery, the cells were plated by adding 50 μl per well (100,000 cells) to 384-well cell culture plates (Greiner) containing 250 nl of test antagonists in 100% DMSO per well, in a 10 points dose response in quadruplicates. PBMCs were incubated in the presence of test antagonists for one hour at 37° C., 5% CO2 before being stimulated with a TLR7 or TLR9 agonist. GS-986 (Gilead Sciences) was used as the TLR7 agonist at a final concentration of 400 nM. ODN-2216 (InvivoGen) was used as the TLR9 agonist at a final concentration of 3 μM. PBMCs were incubated in the presence of the test antagonist and the TLR7 (or TLR9) agonist for an additional 6 hours at 37° C., 5% CO2. At the end of the incubation, the cell culture plates were centrifuged at 500 g for 5 min, and the cell culture supernatant was collected. The level of cytokines (IL-6 and IFNα) in the supernatant was measured by electrochemiluminescence immunoassays (Mesoscale Discovery) following manufacturer's recommended protocols. The level of cytokine measured was plotted against the test antagonist concentration and fitted to a sigmoidal function to determine the EC50, which are shown below in Table 6.

In the next assay the target is T2, TLR8 (Homo sapiens, UniProt Q9NR97).
T2 construct: Human peripheral blood mononuclear cells (PBMCs) consist of lymphocytes, monocytes and dendritic cells that express TLR7, TLR8 and TLR9; endogenous in cells; host or cells: cryopreserved human PBMCs from healthy donors
T2 sequence (Q9NR97 27-1041): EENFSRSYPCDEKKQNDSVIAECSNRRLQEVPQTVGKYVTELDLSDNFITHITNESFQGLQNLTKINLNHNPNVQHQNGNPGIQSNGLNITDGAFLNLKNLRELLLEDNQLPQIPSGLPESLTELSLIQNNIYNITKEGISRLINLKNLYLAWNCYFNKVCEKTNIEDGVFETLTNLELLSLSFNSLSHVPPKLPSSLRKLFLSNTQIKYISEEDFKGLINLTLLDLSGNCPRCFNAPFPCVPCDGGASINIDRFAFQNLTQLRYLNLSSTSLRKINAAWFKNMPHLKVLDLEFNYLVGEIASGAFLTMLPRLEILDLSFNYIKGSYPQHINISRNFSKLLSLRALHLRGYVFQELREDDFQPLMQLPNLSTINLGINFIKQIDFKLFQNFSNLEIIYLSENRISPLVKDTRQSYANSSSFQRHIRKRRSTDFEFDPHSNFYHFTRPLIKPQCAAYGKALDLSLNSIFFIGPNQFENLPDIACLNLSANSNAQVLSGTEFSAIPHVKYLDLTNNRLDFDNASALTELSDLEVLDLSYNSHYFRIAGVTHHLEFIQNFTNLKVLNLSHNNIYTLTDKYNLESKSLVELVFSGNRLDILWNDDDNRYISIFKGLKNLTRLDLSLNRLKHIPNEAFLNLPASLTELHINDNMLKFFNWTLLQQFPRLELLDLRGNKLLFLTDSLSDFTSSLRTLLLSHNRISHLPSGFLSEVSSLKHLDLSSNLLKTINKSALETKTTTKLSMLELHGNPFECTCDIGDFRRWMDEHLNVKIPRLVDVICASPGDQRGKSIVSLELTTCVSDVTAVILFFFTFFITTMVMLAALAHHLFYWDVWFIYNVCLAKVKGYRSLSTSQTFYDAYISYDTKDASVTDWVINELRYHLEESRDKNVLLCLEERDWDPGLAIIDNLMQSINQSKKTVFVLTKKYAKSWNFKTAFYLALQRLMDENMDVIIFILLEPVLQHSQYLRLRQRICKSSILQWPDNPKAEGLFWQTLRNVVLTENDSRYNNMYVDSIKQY
Description: TLR8 human peripheral blood mononuclear cell (PBMC) cell-based assay. To be noted: human PBMCs; 1 h with antagonist, then TLR8 agonist Compound A 800 nM for 6 h; cytokines (TNFa and IL12p40) in supernatant; read-out: TLR-8 EC50. How it is done: TLR8 Human Peripheral Blood Mononuclear Cell (PBMC) Cell-Based Assay
Cryopreserved human PBMCs from healthy donors were thawed and resuspended in RPMI-1640 media with L-glutamine (Corning) supplemented with 10% Fetal Bovine Serum (Hyclone) and 1× Penicillin-Streptomycin (Corning). After counting, the cell density was adjusted to 2 million cells/ml and incubated for 1 hour at 37° C., 5% CO2 for recovery. Following the recovery, the cells were plated by adding 50 μl per well (100,000 cells) to 384-well cell culture plates (Greiner) containing 250 nl of test antagonists in 100% DMSO per well, in a 10 points dose response in quadruplicates. PBMCs were incubated in the presence of antagonists for one hour at 37° C., 5% CO2 before being stimulated with TLR8 agonist. Compound A (Gilead Sciences, U.S. Pat. No. 10,285,990) was used as the TLR8 agonist at a final concentration of 800 nM. PBMCs were incubated in the presence of antagonist and the TLR8 agonist for an additional 6 hours at 37° C., 5% CO2. At the end of the incubation, the cell culture plates were centrifuged at 500 g for 5 min, and the cell culture supernatant was collected. The level of cytokines (TNFa and IL12p40) in the supernatant was measured by electrochemiluminescence immunoassays (Mesoscale Discovery) following manufacturer's recommended protocols. The level of cytokine measured was plotted against the antagonist concentration and fitted to a sigmoidal function to determine the EC50, which are shown below in Table 6.

Usually EC50 stands for the concentration at which the effect is half-maximal. With `Cc1c(C2CCNCC2)sc2[nH]c(-c3cn4ncnc4c4c3CCC4)c(C(C)C)c12` [Example 1, 5-(8,9-dihydro-7H-cyclopenta[c][1,2,4]triazolo[1,5-a]pyridin-6-yl)-4-isopropyl-3-methyl-2-(piperidin-4-yl)-6H-thieno[2,3-b]pyrrole], the EC50 was found to be 0.11 nM on TLR7 and 1.89 nM on TLR8.

Regarding `Cc1c(C2CC3CCC(C2)N3)sc2[nH]c(-c3cn4ncnc4c4c3CCC4)c(C(C)C)c12` (stereo not drawn) [Example 2], the EC50 is 0.95 nM on TLR7 and 3.94 nM on TLR8.

As to `Cc1c(C2C[C@@H]3C[C@H]2CN3)sc2[nH]c(-c3cn4ncnc4c4c3CCC4)c(C(C)C)c12` (stereo partly drawn) [Example 3], the EC50 at TLR7 was 0.77 nM; at TLR8, 0.31 nM.

As to `Cc1c(C23CCNCC2C3)sc2[nH]c(-c3cn4ncnc4c4c3CCC4)c(C(C)C)c12` (stereo not drawn) [Example 5, 2-(3-azabicyclo[4.1.0]heptan-6-yl)-5-(8,9-dihydro-7H-cyclopenta[c][1,2,4]triazolo[1,5-a]pyridin-6-yl)-4-isopropyl-3-methyl-6H-thieno[2,3-b]pyrrole], the EC50 on TLR7 is 0.23 nM; on TLR8, 1.76 nM.

In the case of `Cc1c(C2CCN(CC(N)=O)CC2)sc2[nH]c(-c3cn4ncnc4c4c3CCC4)c(C(C)C)c12` [Example 6, 2-(4-(5-(8,9-dihydro-7H-cyclopenta[c][1,2,4]triazolo[1,5-a]pyridin-6-yl)-4-isopropyl-3-methyl-6H-thieno[2,3-b]pyrrol-2-yl)piperidin-1-yl)acetamide], the EC50 at TLR7 worked out at 0.35 nM; at TLR8, 3.06 nM.

As to `Cc1c(C2CC3CCC(C2)N3CC(N)=O)sc2[nH]c(-c3cn4ncnc4c4c3CCC4)c(C(C)C)c12` (stereo not drawn) [Example 7], the EC50 at TLR7 was 0.78 nM; at TLR8, 3.91 nM.

On to `Cc1c(C2C[C@@H]3C[C@H]2CN3CC(N)=O)sc2[nH]c(-c3cn4ncnc4c4c3CCC4)c(C(C)C)c12` (stereo partly drawn) [Example 8], for which the EC50 at TLR7 is 0.69 nM; on TLR8, 0.14 nM.

Take `Cc1c(C2CC3(CCN(CC(N)=O)C3)C2)sc2[nH]c(-c3cn4ncnc4c4c3CCC4)c(C(C)C)c12` (stereo not drawn) [Example 9]: the EC50 on TLR7 was 1.17 nM; on TLR8, 0.32 nM.

For `Cc1c(C23CCN(CC(N)=O)CC2C3)sc2[nH]c(-c3cn4ncnc4c4c3CCC4)c(C(C)C)c12` (stereo not drawn) [Example 10], the EC50 turned out to be 0.26 nM at TLR7 and 15.3 nM on TLR8.

Take `Cc1c(C2CCN(S(=O)(=O)N3CCNCC3)CC2)sc2[nH]c(-c3cn4ncnc4c4c3CCC4)c(C(C)C)c12` [Example 11, 5-(8,9-dihydro-7H-cyclopenta[c][1,2,4]triazolo[1,5-a]pyridin-6-yl)-4-isopropyl-3-methyl-2-(1-(piperazin-1-ylsulfonyl)piperidin-4-yl)-6H-thieno[2,3-b]pyrrole]: the figures for the EC50 on TLR7 and at TLR8 were 0.32 nM and 4.7 nM, respectively.

For the compound `Cc1c(C2CCN(CC3(C)COC3)CC2)sc2[nH]c(-c3cn4ncnc4c4c3CCC4)c(C(C)C)c12` [Example 12, 5-(8,9-dihydro-7H-cyclopenta[c][1,2,4]triazolo[1,5-a]pyridin-6-yl)-4-isopropyl-3-methyl-2-(1-((3-methyloxetan-3-yl)methyl)piperidin-4-yl)-6H-thieno[2,3-b]pyrrole], the EC50 is 6.08 nM at TLR7 and 4.74 nM at TLR8.

With `Cc1c(C2CCN(Cc3ccn(C)n3)CC2)sc2[nH]c(-c3cn4ncnc4c4c3CCC4)c(C(C)C)c12` [Example 13], the EC50 is 1.44 nM at TLR7 and 5.84 nM at TLR8.

Consider `Cc1c(C2CCN(C(=O)[C@H]3COCCN3)CC2)sc2[nH]c(-c3cn4ncnc4c4c3CCC4)c(C(C)C)c12` [Example 14, (R)-(4-(5-(8,9-dihydro-7H-cyclopenta[c][1,2,4]triazolo[1,5-a]pyridin-6-yl)-4-isopropyl-3-methyl-6H-thieno[2,3-b]pyrrol-2-yl)piperidin-1-yl)(morpholin-3-yl)methanone], for which the EC50 was 0.58 nM at TLR7 and 4.87 nM on TLR8.

Take `Cc1c(C2CCN(C(=O)[C@@H]3COCCN3)CC2)sc2[nH]c(-c3cn4ncnc4c4c3CCC4)c(C(C)C)c12` [Example 15]: the EC50 on TLR7 amounted to 0.29 nM; at TLR8, 5.26 nM.

For `Cc1c(C2CCN(C(=O)[C@H]3C[C@@H](F)CN3)CC2)sc2[nH]c(-c3cn4ncnc4c4c3CCC4)c(C(C)C)c12` [Example 16], the EC50 on TLR7 amounted to 1.46 nM; at TLR8 it was 12.5 nM.
